Data as given in PubChem BioAssay AID330 (DTP/NCI, 2004).
Values joined by “and” are separate entries in the source; they are usually repeats but may differ in a detail not shown here. Equal values may be shown once. Toxic doses and inconclusive results are not listed. How the source made its calls: active means survival T/C of 150% or more; inactive means T/C below 125% in these data.

Test system: P388 leukemia ip, CD2F1 mice, survival T/C
Experiment: NCI In Vivo Anticancer Drug Screen. Data for tumor model P388 Leukemia (intraperitoneal) in CD2F1 (CDF1) mice
Conditions: endpoint: median survival time, higher = longer survival
In short: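 Mice carrying the transplanted tumor received test compound or vehicle. Survival was recorded in each group, and the value is the treated-group measurement divided by that of the vehicle-treated control group.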

[1] = dose: 100.0 mg/kg/injection, schedule: Q01DX009 (ip), vehicle: saline with Tween-80
[2] = dose: 50.0 mg/kg/injection, schedule: Q01DX009 (ip), vehicle: saline with Tween-80
[3] = dose: 50.0 mg/kg/injection, schedule: Q01DX005 (ip), vehicle: Klucel (hydroxypropylcellulose) (HPC)
[4] = dose: 100.0 mg/kg/injection, schedule: Q01DX005 (ip), vehicle: Klucel (hydroxypropylcellulose) (HPC)
[5] = dose: 200.0 mg/kg/injection, schedule: Q01DX005 (ip), vehicle: Klucel (hydroxypropylcellulose) (HPC)
[6] = dose: 60.0 mg/kg/injection, schedule: Q01DX005 (ip), vehicle: saline with Tween-80

Measured: T/C

O=C(O)C1CC[N-]CC1.O=C(O)C1CC[N-]CC1.O=C(O)C1CC[N-]CC1.O=C(O)C1CC[N-]CC1.[Cl][Rh][Cl]
inactive: dose: 67.0 mg/kg/injection, schedule: Q01DX009 (ip), vehicle: saline with Tween-80 100 % of control | [1] 109 % of control | dose: 150.0 mg/kg/injection, schedule: Q01DX009 (ip), vehicle: saline with Tween-80 113 % of control

CCCCn1c(O)c(/C=C2/C=Nc3ccccc32)sc1=O
inactive: [2] 95 % of control | [1] 95 % of control | dose: 200.0 mg/kg/injection, schedule: Q01DX009 (ip), vehicle: saline with Tween-80 97 % of control

Cc1ccc([B-]23OCC[N+]2(CNC(=O)c2ccccc2O)CCO3)cc1 (configuration not stated)
inactive: [3] 103 % of control | [4] 108 % of control | [5] 103 % of control

CC(=O)Oc1ccc(/C(C)=N/NC(=O)C(C)SC(C)C(=O)N/N=C(\C)c2ccc(OC(C)=O)cc2)cc1 (configuration not stated)
inactive: [3] 108 % of control | [4] 105 % of control | [5] 106 % of control

CCN1CCCc2cc3c(C(F)(F)F)cc(=O)oc3cc21
inactive: [3] 97 % of control | [4] 106 % of control | [5] 97 % of control

CC(=O)C1=CC(C)(C)OC1=O
inactive: dose: 100.0 mg/kg/injection, schedule: Q04DX002 (ip), vehicle: saline with Tween-80 103 % of control | dose: 200.0 mg/kg/injection, schedule: Q04DX002 (ip), vehicle: saline with Tween-80 109 % of control

CC(c1ccccc1)[c-]1[c-][c-][c-][c-]1.[Cl][Zr][Cl].[c-]1[c-][c-][cH-][c-]1 (configuration not stated)
inactive: dose: 3.12 mg/kg/injection, schedule: Q01DX009 (ip), vehicle: saline with Tween-80 93 % of control | dose: 6.25 mg/kg/injection, schedule: Q01DX009 (ip), vehicle: saline with Tween-80 104 % of control | dose: 12.5 mg/kg/injection, schedule: Q01DX009 (ip), vehicle: saline with Tween-80 104 % of control | [2] 95 % of control

Clc1ccc(C2Oc3ccccc3-c3nc4ncccc4cc32)cc1 (configuration not stated)
inactive: dose: 25.0 mg/kg/injection, schedule: Q01DX005 (ip), vehicle: Klucel (hydroxypropylcellulose) (HPC) 86 % of control | [3] 86 % of control | [4] 88 % of control | [5] 91 % of control

CC(=O)OC1(c2ccccc2)CCN(C)CC1C(=O)c1ccccc1 (configuration not stated)
inactive: dose: 50.0 mg/kg/injection, schedule: Q01DX005 (ip), vehicle: saline 109 % of control | dose: 100.0 mg/kg/injection, schedule: Q01DX005 (ip), vehicle: saline 116 % of control

CONS(=O)(=O)c1ccccc1C(=O)OC
inactive: [3] 105 % of control | [4] 100 % of control | [5] 103 % of control

O=C(O)c1cc(Br)cc(Br)c1O.O=C(O)c1cc(Br)cc(Br)c1O.[Cu]
inactive: dose: 15.0 mg/kg/injection, schedule: Q01DX005 (ip), vehicle: saline with Tween-80 92 % of control | dose: 30.0 mg/kg/injection, schedule: Q01DX005 (ip), vehicle: saline with Tween-80 94 % of control | [6] 101 % of control and 92 % of control

CN1CC(=O)NC2C(=CN(Cc3ccccc3)c3ccccc32)C1=O (configuration not stated)
inactive: [6] 100 % of control | dose: 120.0 mg/kg/injection, schedule: Q01DX005 (ip), vehicle: saline with Tween-80 90 % of control | dose: 240.0 mg/kg/injection, schedule: Q01DX005 (ip), vehicle: saline with Tween-80 90 % of control

C[n+]1c2n(c3ccccc31)CCn1c-2[n+](C)c2ccccc21
inactive: dose: 12.5 mg/kg/injection, schedule: Q01DX009 (ip), vehicle: Klucel (hydroxypropylcellulose) (HPC) 100 % of control and 103 % of control and 117 % of control | dose: 25.0 mg/kg/injection, schedule: Q01DX009 (ip), vehicle: Klucel (hydroxypropylcellulose) (HPC) 102 % of control and 103 % of control (2×) | dose: 50.0 mg/kg/injection, schedule: Q01DX009 (ip), vehicle: Klucel (hydroxypropylcellulose) (HPC) 100 % of control and 120 % of control and 96 % of control

CCCCCCC(=O)/C=C/c1ccc(OC(=O)c2ccccc2)cc1
inactive: dose: 50.0 mg/kg/injection, schedule: Q01DX009 (ip), vehicle: saline 97 % of control | dose: 100.0 mg/kg/injection, schedule: Q01DX009 (ip), vehicle: saline 97 % of control | dose: 200.0 mg/kg/injection, schedule: Q01DX009 (ip), vehicle: saline 110 % of control
